Measured values published in ChEMBL document CHEMBL1201862, “PubChem BioAssay data set” (2004).
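Step 1: Grow cells in 96-well plates. Step 2: Expose to compound for 48 hours at 5 concentrations. Step 3: Interpolate endpoints linearly; if unreached, use highest concentration. GI50 is the concentration that inhibits growth by half.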 Active and inactive are the calls of the source. Cut-off read from the data, not from the text of the source: active = GI50 up to about 1.1 µM and inactive = higher.

Columns and labels:
Test in all cases: NCI anticancer screen, dose series, 48 h
NCI/ADR-RES = system: NCI/ADR-RES
RXF 631 = system: RXF 631
DMS-273 = system: DMS-273
HOP-18 = system: HOP-18
KM-20L2 = system: KM-20L2
DMS-114 = system: DMS-114
SNB-78 = system: SNB-78
LXFL 529 = system: LXFL 529
XF498 = system: XF498

Measured: GI50

Cn1c(=O)c2nc3sc4c(n3c2n(C)c1=O)C(=O)c1ccccc1C4=O
inactive: NCI/ADR-RES 19 µM | RXF 631 > 100 µM | DMS-273 > 100 µM | KM-20L2 > 100 µM | DMS-114 > 100 µM | SNB-78 > 100 µM | LXFL 529 > 100 µM | XF498 > 100 µM
active: HOP-18 0.433 µM
